Legend:
HDAC6 human recombinant = target: T1, HDAC6 human recombinant (Homo sapiens, UniProt Q9UBN7); test: HDAC enzyme activity inhibition (in vitro), HDAC6 assay; type: biochemical; settings: samples at 0.1, 1, 10, 100 and 1000 nM; 37° C. 60 minutes; fluorescence Ex 390, Em 460; read-out: HDAC6 IC50
T1 construct: purchased Calbiochem 382180
T1 sequence (Q9UBN7 1-1215): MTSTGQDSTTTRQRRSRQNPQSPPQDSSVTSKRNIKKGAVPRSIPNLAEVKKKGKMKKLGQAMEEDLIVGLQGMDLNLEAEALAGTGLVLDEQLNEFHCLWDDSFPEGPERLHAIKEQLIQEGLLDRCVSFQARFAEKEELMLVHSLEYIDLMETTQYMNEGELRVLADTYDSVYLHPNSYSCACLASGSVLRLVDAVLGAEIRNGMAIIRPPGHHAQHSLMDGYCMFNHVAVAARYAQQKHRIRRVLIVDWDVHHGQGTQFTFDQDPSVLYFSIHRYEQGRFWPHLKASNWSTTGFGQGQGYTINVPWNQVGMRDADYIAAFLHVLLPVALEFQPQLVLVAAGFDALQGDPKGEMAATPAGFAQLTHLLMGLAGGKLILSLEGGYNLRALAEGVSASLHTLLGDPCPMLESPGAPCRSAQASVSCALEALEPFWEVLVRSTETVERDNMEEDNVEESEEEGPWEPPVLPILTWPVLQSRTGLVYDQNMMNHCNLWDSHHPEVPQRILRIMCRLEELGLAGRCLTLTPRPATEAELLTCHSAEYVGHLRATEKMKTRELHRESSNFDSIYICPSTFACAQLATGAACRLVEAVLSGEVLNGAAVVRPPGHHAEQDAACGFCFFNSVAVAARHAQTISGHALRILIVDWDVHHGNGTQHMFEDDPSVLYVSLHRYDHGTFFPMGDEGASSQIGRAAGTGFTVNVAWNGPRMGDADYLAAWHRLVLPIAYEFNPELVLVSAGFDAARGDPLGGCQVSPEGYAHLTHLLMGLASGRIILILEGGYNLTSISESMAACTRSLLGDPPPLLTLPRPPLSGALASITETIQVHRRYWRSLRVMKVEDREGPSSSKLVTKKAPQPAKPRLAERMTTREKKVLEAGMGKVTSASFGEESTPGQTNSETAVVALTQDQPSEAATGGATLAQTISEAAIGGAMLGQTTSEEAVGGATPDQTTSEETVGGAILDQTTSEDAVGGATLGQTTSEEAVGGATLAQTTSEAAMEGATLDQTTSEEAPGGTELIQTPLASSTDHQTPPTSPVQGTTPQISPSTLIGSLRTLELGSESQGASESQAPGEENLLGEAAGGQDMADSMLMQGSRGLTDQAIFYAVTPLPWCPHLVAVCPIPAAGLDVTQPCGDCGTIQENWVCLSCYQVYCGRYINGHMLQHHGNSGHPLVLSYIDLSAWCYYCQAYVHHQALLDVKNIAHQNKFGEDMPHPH
Outline: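 Fluorescence (Ex 390, Em 460) read after a 37° C, 60 min enzyme reaction and a further 30 min developer step at 37° C. Uses recombinant human HDAC6; HDAC1 arm dosed at 100, 1000, 10000 nM.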

HDAC1 = target: T2, HDAC1 (Homo sapiens, UniProt Q13547); test: HDAC enzyme activity inhibition (in vitro), HDAC1 Fluorimetric Drug Discovery Assay Kit; type: biochemical; settings: samples at 100, 1000 and 10000 nM; 37° C. 60 minutes; fluorescence Ex 390, Em 460; read-out: HDAC1 IC50
T2 construct: purchased Enzolifesciences BML-AK511
Outline: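 Fluorescence read-out (Ex 390/Em 460) after developer step, 30 min at 37° C, following a 60-min 37° C enzyme reaction. Test concentrations: HDAC1 kit, 100–10000 nM (three levels); recombinant human HDAC6, 0.1–1000 nM (five levels).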

T2 sequence (Q13547 whole entry): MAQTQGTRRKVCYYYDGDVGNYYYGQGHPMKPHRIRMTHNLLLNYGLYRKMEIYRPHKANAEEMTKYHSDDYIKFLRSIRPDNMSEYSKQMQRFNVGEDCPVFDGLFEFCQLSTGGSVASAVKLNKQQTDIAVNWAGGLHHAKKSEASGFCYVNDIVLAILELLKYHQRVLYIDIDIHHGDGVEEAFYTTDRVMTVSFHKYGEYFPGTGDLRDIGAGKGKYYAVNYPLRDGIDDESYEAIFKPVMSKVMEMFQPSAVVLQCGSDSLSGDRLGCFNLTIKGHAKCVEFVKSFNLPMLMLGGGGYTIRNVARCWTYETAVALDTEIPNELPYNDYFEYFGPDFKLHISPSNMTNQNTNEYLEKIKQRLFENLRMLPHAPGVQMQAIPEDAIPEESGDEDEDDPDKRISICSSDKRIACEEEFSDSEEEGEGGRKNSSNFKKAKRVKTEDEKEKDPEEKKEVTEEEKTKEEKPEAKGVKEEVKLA

Compound | IC50 (HDAC6 human recombinant) [nM] | IC50 (HDAC1) [nM]
CN1CCC(n2c(=O)n(Cc3ccc(-c4nnc(C(F)F)o4)cn3)c3ccc(-c4cnoc4)cc32)CC1 [Compound 211, 1-((5-(5-(difluoromethyl)-1,3,4-oxadiazole-2-yl)pyridine-2-yl)methyl)-5-(isoxazole-4-yl)-3-(1-methylpiperidine-4-yl)-1,3-dihydro-2H-benzo[d]imidazole-2-one] | 48 | > 10000
Cn1c(=O)n(Cc2ccc(-c3nnc(C(F)F)o3)cn2)c2ccc(-c3cccc4[nH]ccc34)cc21 [Compound 212, 1-((5-(5-(difluoromethyl)-1,3,4-oxadiazole-2-yl)pyridine-2-yl)methyl)-5-(1H-indole-4-yl)-3-methyl-1,3-dihydro-2H-benzo[d]imidazole-2-one] | 10 | > 10000
CN1CCC(n2c(=O)n(Cc3ccc(-c4nnc(C(F)F)o4)cn3)c3cc(Cl)ccc32)CC1 [Compound 213, 5-chloro-3-((5-(5-(difluoromethyl)-1,3,4-oxadiazole-2-yl)pyridine-2-yl)methyl)-1-(1-methylpiperidine-4-yl)-1,3-dihydro-2H-benzo[d]imidazole-2-one] | 14 | > 10000
CC(C)N1CCC(n2c(=O)n(Cc3ccc(-c4nnc(C(F)F)o4)cn3)c3cc(Cl)ccc32)CC1 [Compound 214, 5-chloro-3-((5-(5-(difluoromethyl)-1,3,4-oxadiazole-2-yl)pyridine-2-yl)methyl)-1-(1-isopropylpiperidine-4-yl)-1,3-dihydro-2H-benzo[d]imidazole-2-one] | 15 | > 10000
CC(=O)N1CCC(n2c(=O)n(Cc3ccc(-c4nnc(C(F)F)o4)cn3)c3cc(Cl)ccc32)CC1 [Compound 215, 1-(1-acetylpiperidine-4-yl)-5-chloro-3-((5-(5-(difluoromethyl)-1,3,4-oxadiazole-2-yl)pyridine-2-yl)methyl)-1,3-dihydro-2H-benzo[d]imidazole-2-one] | 20 | > 10000
CS(=O)(=O)N1CCC(n2c(=O)n(Cc3ccc(-c4nnc(C(F)F)o4)cn3)c3cc(Cl)ccc32)CC1 [Compound 216, 5-chloro-3-((5-(5-(difluoromethyl)-1,3,4-oxadiazole-2-yl)pyridine-2-yl)methyl)-1-(1-(methylsulfonyl)piperidine-4-yl)-1,3-dihydro-2H-benzo[d]imidazole-2-one] | 18 | > 10000
CN1CCC(n2c(=O)n(Cc3ccc(-c4nnc(C(F)F)o4)cn3)c3cc(F)c(-c4cccc5[nH]ccc45)cc32)CC1 [Compound 217, 1-((5-(5-(difluoromethyl)-1,3,4-oxadiazole-2-yl)pyridine-2-yl)methyl)-6-fluoro-5-(1H-indole-4-yl)-3-(1-methylpiperidine-4-yl)-1,3-dihydro-2H-benzo[d]imidazole-2-one] | 6 | > 10000
Cc1ccc(-c2ccc3c(c2)n(C)c(=O)n3Cc2ccc(-c3nnc(C(F)F)o3)cn2)o1 [Compound 218, 1-((5-(5-(difluoromethyl)-1,3,4-oxadiazole-2-yl)pyridine-2-yl)methyl)-3-methyl-5-(5-methylfuran-2-yl)-1,3-dihydro-2H-benzo[d]imidazole-2-one] | 44 | > 10000
Cn1c(=O)n(Cc2ccc(-c3nnc(C(F)F)o3)cn2)c2ccc(-c3ccsc3)cc21 [Compound 219, 1-((5-(5-(difluoromethyl)-1,3,4-oxadiazole-2-yl)pyridine-2-yl)methyl)-3-methyl-5-(thiophene-3-yl)-1,3-dihydro-2H-benzo[d]imidazole-2-one] | 33 | > 10000
Cn1c(=O)n(Cc2ccc(-c3nnc(C(F)F)o3)cn2)c2ccc(-c3ccc(S(C)(=O)=O)cc3)cc21 [Compound 220, 1-((5-(5-(difluoromethyl)-1,3,4-oxadiazole-2-yl)pyridine-2-yl)methyl)-3-methyl-5-(4-(methylsulfonyl)phenyl)-1,3-dihydro-2H-benzo[d]imidazole-2-one] | 18 | > 10000
Cn1c(=O)n(Cc2ccc(-c3nnc(C(F)F)o3)cn2)c2ccc(-c3ccn[nH]3)cc21 [Compound 221, 1-((5-(5-(difluoromethyl)-1,3,4-oxadiazole-2-yl)pyridine-2-yl)methyl)-3-methyl-5-(1H-pyrazole-5-yl)-1,3-dihydro-2H-benzo[d]imidazole-2-one] | 8 | > 10000
Cn1nccc1-c1ccc2c(c1)n(C)c(=O)n2Cc1ccc(-c2nnc(C(F)F)o2)cn1 [Compound 222, 1-((5-(5-(difluoromethyl)-1,3,4-oxadiazole-2-yl)pyridine-2-yl)methyl)-3-methyl-5-(1-methyl-1H-pyrazole-5-yl)-1,3-dihydro-2H-benzo[d]imidazole-2-one] | 21 | > 10000
CN1CCC(n2c(=O)n(Cc3ccc(-c4nnc(C(F)F)o4)cn3)c3cc(F)c(-c4ccc(F)cc4F)cc32)CC1 [Compound 223, 1-((5-(5-(difluoromethyl)-1,3,4-oxadiazole-2-yl)pyridine-2-yl)methyl)-5-(2,4-difluorophenyl)-6-fluoro-3-(1-methylpiperidine-4-yl)-1,3-dihydro-2H-benzo[d]imidazole-2-one] | 16 | > 10000

Next, values leading:

IC50 (HDAC6 human recombinant) [nM] | IC50 (HDAC1) [nM] | Compound
8 | > 10000 | Cn1c(=O)n(Cc2ccc(-c3nnc(C(F)F)o3)cn2)c2cc(F)c(-c3cccc4[nH]ccc34)cc21 [Compound 224, 1-((5-(5-(difluoromethyl)-1,3,4-oxadiazole-2-yl)pyridine-2-yl)methyl)-6-fluoro-5-(1H-indole-4-yl)-3-methyl-1,3-dihydro-2H-benzo[d]imidazole-2-one]
11 | > 10000 | Cn1c(=O)n(Cc2ccc(-c3nnc(C(F)F)o3)cn2)c2cc(F)c(-c3ccc(S(C)(=O)=O)cc3)cc21 [Compound 225, 1-((5-(5-(difluoromethyl)-1,3,4-oxadiazole-2-yl)pyridine-2-yl)methyl)-6-fluoro-3-methy 1-5-(4-(methylsulfonyl)phenyl)-1,3-dihydro-2H-benzo[d]imidazole-2-one]
32 | > 10000 | Cn1ccc2cc(-c3cc4c(cc3F)n(Cc3ccc(-c5nnc(C(F)F)o5)cn3)c(=O)n4C)ccc21 [Compound 227, 1-((5-(5-(difluoromethyl)-1,3,4-oxadiazole-2-yl)pyridine-2-yl)methyl)-6-fluoro-3-methy 1-5-(1-methyl-1H-indole-5-yl)-1,3-dihydro-2H-benzo[d]imidazole-2-one]
47 | > 10000 | O=c1oc2cc(Cl)c(Br)cc2n1Cc1ccc(-c2nnc(C(F)F)o2)cn1 [Compound 228, 5-bromo-6-chloro-3-((5-(5-(difluoromethyl)-1,3,4-oxadiazole-2-yl)pyridine-2-yl)methyl)benzo[d]oxazole-2(3H)-one]
312 | > 10000 | O=c1oc2cc(Cl)c(-c3cccnc3)cc2n1Cc1ccc(-c2nnc(C(F)F)o2)cn1 [Compound 229, 6-chloro-3-((5-(5-(difluoromethyl)-1,3,4-oxadiazole-2-yl)pyridine-2-yl)methyl)-5-(pyridine-3-yl)benzo[d]oxazole-2(3H)-one]
16 | > 10000 | O=c1sc2cc(Br)ccc2n1Cc1ccc(-c2nnc(C(F)F)o2)cn1 [Compound 230, 6-bromo-3-((5-(5-(difluoromethyl)-1,3,4-oxadiazole-2-yl)pyridine-2-yl)methyl)benzo[d]thiazole-2(3H)-one]
9 | > 10000 | O=c1sc2cc(-c3cccnc3)ccc2n1Cc1ccc(-c2nnc(C(F)F)o2)cn1 [Compound 231, 3-((5-(5-(difluoromethyl)-1,3,4-oxadiazole-2-yl)pyridine-2-yl)methyl)-6-(pyridine-3-yl) benzo[d]thiazole-2(3H)-one]
